Data taken from patent publication US20260258077A1, “PROTEIN FOLDING AGENT, COMPOUND, PROTEIN FOLDING METHOD, PHARMACEUTICAL COMPOSITION, AND AGENT FOR SUPPRESSING CYTOTOXICITY BY TRANSITION METAL” (National University Corporation Tokyo University of …, priority 2023, published 2026).

Key:
HeLa cells = experiment: Suppressive effect on cytotoxicity of Cu(II) ions (Cell Counting Kit-8); assay type: cell-based; settings: 100 μM Cu(II); single oxidized agent added four hours later; read 24 hours after CuCl2 (FIG. 15)
Description: HeLa cells were seeded in a 96-well plate at 5,000 cells/well and cultured at 37° C. in a 5% CO2 environment for 24 hours. Subsequently, a CuCl2 aqueous solution was added thereto to obtain 100 μM Cu(II). Four hours later, a mixed solution (10:1) of a certain amount of the compound (A-1-1-1) and the compound (B-1-1-1), or a mixed solution (10:1) of oxidized glutathione (GSSG) and reduced glutathione (GSH) was added. 24 hours after the addition of CuCl2, a Cell Counting Kit-8 solution was added thereto. Two hours later, an absorbance at 450 nm was measured to estimate the cell viability.
HeLa cells were seeded in a 96-well plate at 5,000 cells/well and cultured at 37° C. in a 5% CO2 environment for 24 hours. Subsequently, a CuCl2 aqueous solution was added thereto to obtain 100 μM Cu(II). Four hours later, a certain amount of the compound (B-1-1-1) solution or oxidized glutathione (GSSG) solution was added thereto. 24 hours after the addition of CuCl2, a Cell Counting Kit-8 solution was added thereto. Two hours later, the absorbance at 450 nm was measured to estimate the cell viability.

[1] = molecular target: T1, reduced and denatured Bovine Pancreatic Trypsin Inhibitor (BPTI) (Bos taurus, UniProt P00974); experiment: Protein folding test of reduced and denatured BPTI (reverse-phase HPLC); assay type: biochemical; settings: for formation proportion of native structural BPTI in the presence of Zn(II) ions: 90 μM Zn(II) (ZnSO4), 90 μM (B-1-2-1) or 900 μM GSSG alone, 1 hour (FIG. 25)
T1 construct: purchased Pro-Spec-Tany TechnoGene Ltd. (Rehovot, Israel)
Description: Bovine Pancreatic Trypsin Inhibitor (BPTI) having three disulfide bonds in the molecule was used as a model protein for analyzing a folding process.
BPTI (10 mg) was dissolved in 0.1 M Tris-HCl (pH: 8.0, 1.0 mL) containing 30 mM 1,4-dithiothreitol and 8 M urea, incubated at 50° C. for 3 hours, and purified by reverse-phase HPLC. HPLC purification was carried out using a PU-4180 pump and a UV-4075 detector manufactured by JASCO Corporation (Tokyo, Japan), and an InertSustain C18 column (4.6 mm×250 mm) manufactured by GL Sciences Inc. (Tokyo, Japan) at a flow rate of 1.0 mL·min^−1. The collected fractions were freeze-dried, and the obtained powder was stored at −30° C.
For analysis of the folding process by reverse-phase HPLC, Primaide HPLC system manufactured by Hitachi High-Tech Corporation (Tokyo, Japan) and TSKgel Protein C4-300 column (§ 4.6×150 mm) manufactured by Tosoh Corporation (Tokyo, Japan) were used. […]
In the presence of 200 μM of the compound (B-1-1-1) and 1.0 mM of the compound (A-1-1-1), reduced and denatured BPTI (30 μM) was dissolved in a Tris-HCl buffer (50 mM Tris-HCl, 300 mM NaCl, pH: 7.5) and incubated at 30° C. Reaction solutions (200 μL) collected at 0 minutes, 1 minute, 5 minutes, 10 minutes, 30 minutes, and 60 minutes after the start of the reaction were mixed with an equivalent amount of 1 M hydrochloric acid, and analyzed by reverse-phase HPLC. Tracing was performed at a flow rate of 1.0 mL·min^−1 and a wavelength of 229 nm, and a linear gradient was applied to the elution solvent ratio during measurement (solvent A: water containing 0.05% TFA, solvent B: acetonitrile containing 0.05% TFA; the amount of solvent A: 95% at 0 minutes, 80% at 15 minutes, 65% at 45 minutes). […]
In the presence of 200 μM oxidized glutathione (GSSG) and 1.0 mM reduced glutathione (GSH), or in the presence of 200 μM of the compound (B-1-1-1) and 1.0 mM of the compound (A-1-1-1), ZnSO4 and reduced and denatured BPTI (30 μM) were dissolved in a Tris-HCl buffer (50 mM Tris-HCl, 300 mM NaCl, pH: 7.5) and incubated at 30° C. The reaction solution (200 μL) 1 hour after the start of the reaction was mixed with an equivalent amount of 1 M hydrochloric acid and analyzed by reverse-phase HPLC. Tracing was performed at a flow rate of 1.0 mL·min^−1 and a wavelength of 229 nm, and a linear gradient was applied to the elution solvent ratio during measurement (solvent A: water containing 0.05% TFA, solvent B: acetonitrile containing 0.05% TFA; the amount of solvent A: 95% at 0 minutes, 80% at 15 minutes, 65% at 45 minutes).
In the presence of 90 μM of the compound (B-1-2-1) and 900 μM of the compound (A-1-2-1), or in the presence of 90 μM of oxidized glutathione […] and 900 μM of reduced glutathione […], reduced and denatured BPTI (30 μM) was dissolved in a Tris-HCl buffer (50 mM Tris-HCl, 300 mM NaCl, pH: 7.5) and incubated at 30° C. The reaction solution (200 μL) 1 hour after the start of the reaction was mixed with an equivalent amount of 1 M hydrochloric acid and analyzed by reverse-phase HPLC. Tracing was performed at a flow rate of 1.0 mL·min^−1 and a wavelength of 229 nm, and a linear gradient was applied to the elution solvent ratio during measurement (solvent A: water containing 0.05% TFA, solvent B: acetonitrile containing 0.05% TFA; the amount of solvent A: 95% at 0 minutes, 80% at 15 minutes, 65% at 45 minutes).
In the presence of 90 μM of the compound (B-1-2-1), 90 μM of Zn(II) ion (ZnSO4) and reduced and denatured BPTI (30 μM) were dissolved in a Tris-HCl buffer (50 mM Tris-HCl, 300 mM NaCl, pH: 7.5) and incubated at 30° C. The reaction solution (200 μL) 1 hour after the start of the reaction was mixed with an equivalent amount of 1 M hydrochloric acid and analyzed by reverse-phase HPLC. […]

## C1CNCCNCCCN(CCSSCCN2CCCNCCNCCCNCC2)CCNC1 [compound (B-1-1-1)]
HeLa cells
  improvement of cell viability of HeLa cells exposed to Cu(II) ions: greatly improved the viability of HeLa cells

## C1CNCCN(CCSSCCN2CCNCCNCC2)CCN1 [compound (B-1-2-1)]
[1]; 90 μM (B-1-2-1) alone, Zn(II) 0 μM, 1 hour (FIG. 23)
  formation of native structural BPTI in the absence of Zn(II) ions: native structural BPTI was formed even at a Zn(II) ion concentration of 0 μM
[1]; 90 μM (B-1-2-1) alone, ZnSO4, 1 hour, 30° C. (FIG. 23)
  formation proportion of native structural BPTI with increasing Zn(II) ion concentration: formation proportion of native structural BPTI increased as the Zn(II) ion concentration increased
[1]
  formation proportion of native structural BPTI in the presence of Zn(II) ions: formation proportion of native structural BPTI was larger in the presence of Zn(II) ions than in the absence of Zn(II) ions

## C1CN2CCSSCCN(CCN1)CC2 [compound (B-2-1-1)]
[1]; 6 μM (B-2-1-1), NiCl2 0 μM, BPTI 30 μM (FIG. 31)
  protein folding promotion effect of a catalytic amount: had the protein folding promotion effect
[1]; 6 μM (B-2-1-1), NiCl2 1 μM, BPTI 30 μM (FIG. 32)
  protein folding promotion effect of a catalytic amount in the presence of Ni(II) ions: significantly improved as compared with the absence of Ni(II) ions
[1]; 30 μM (B-2-1-1), CuCl2 5 μM, BPTI 30 μM (FIG. 33)
  protein folding promotion effect of a catalytic amount in the presence of Cu(II) ions: significantly improved as compared with the absence of Cu(II) ions
[1]; 90 μM (B-2-1-1), CuCl2, 1 hour (FIG. 29)
  formation proportion of native structural BPTI with increasing Cu(II) ion concentration: formation proportion of native structural BPTI increased as the Cu(II) ion concentration increased
[1]; 90 μM (B-2-1-1), NiCl2, 1 hour (FIG. 30)
  formation proportion of native structural BPTI with increasing Ni(II) ion concentration: formation proportion of native structural BPTI increased as the Ni(II) ion concentration increased
[1]; catalytic amount of (B-2-1-1), presence of Ni(II) ions or Cu(II) ions
  folding versus theoretical yield of a stoichiometric reaction: enhancement of folding that greatly exceeded the theoretical yield expected for a stoichiometric reaction
[1]; no metal ion, 90 μM agent, 1 hour, 30° C. (FIG. 28)
  protein folding promotion effect: protein folding promotion effect comparable to that of GSSG

## oxidized glutathione [GSSG, reference compound]
[1]
  formation proportion of native structural BPTI in the presence of Zn(II) ions: proteins aggregated and folding hardly proceeded
HeLa cells
  improvement of cell viability of HeLa cells exposed to Cu(II) ions: had little effect on improving the cell viability of HeLa cells
